Measurements: patent US11192921B2 (priority 2017, dated 2021)
Where “and” joins values, the source holds several entries; their conditions need not be identical. Equal entries are not always repeated. Where two headings read alike, the source gives them in different places. Marks after values point to notes of the source that are not given here.

Tests used:
[1] = system: male BALB/c mice; assay: cancer-induced pain (CIP) model, gross behavior; assay type: in vivo; details: 14th day after inoculation
Procedure: (§1) BALB/c mice were taken, and the right sciatic nerve was exposed; ascites containing 5×10^4 Meth A sarcoma cells were injected into the proximal nerve near the sciatic nerve trochanter far from the tendon branch of the posterior biceps, the wound was closed, and the same volume of normal saline was injected into the left side by performing a sham operation.
On the 4th, 7th, 10th and 14th days after inoculation, spontaneous pain and foot drop and the like occurred before the occurrence of thermal sensitivity and mechanical pain sensitivity behaviors, […]

[2] = system: Female Kunming mice
[3] = system: Female Kunming mice; remark: listed apart in the source
[4] = system: Kunming mice; assay type: in vivo
[5] = system: Kunming mice; details: mouse, in vivo
[6] = system: male BALB/c mice; assay: cancer-induced pain (CIP) model, thermosensitive test; assay type: in vivo
Procedure: Influence of Analgesic Polypeptides on Neuralgia in a Cancer-Induced Pain (CIP) Model
A number of male BALB/c mice each weighing 25-30 g were used.
Von Fery monofilament; a microsyringe, 5 mg/mL solutions of polypeptides I, II and II I; normal saline.
as §1
1.3.1 Thermosensitive Test
On the 4th, 7th, 10th and 14th days after inoculation, the latency of foot lifting caused by heat radiation stimulation to animals was observed, and the heat radiation intensity was adjusted to cause the latency of foot lifting of normal mice to be (10±2) s.
All data was expressed as M±SD and subjected to one-way ANOVA.

[7] = system: SD rats; assay: pain threshold of trigeminal nerve (trigeminal neuralgia model); assay type: in vivo; details: for highest pain threshold on the operative side / pain threshold on the opposite side: 3 h after injection; for Pain threshold: intraperitoneal
[8] = system: Female Kunming mice; remark: listed apart in the source
[9] = system: Female Kunming mice; assay type: in vivo
[10] = 50 μg/kg, injected subcutaneously
[11] = 100 μg/kg, injected subcutaneously

## Gly-Ser-Cys-Ser-Thr-Pro-Pro-d{Cys}-Val-Leu-Tyr-Ser [Polypeptide I]
[1]
  left foot lifting behavior: obviously observed
[2]; 1 h
  Movement duration of mice in forced swimming tests: 20.39 ± 1.21^ s
[2]; 24 h
  Movement duration of mice in forced swimming tests: 18.99 ± 1.48 s
[2]; Time 0
  Movement duration of mice in forced swimming tests: 20.57 ± 1.65 s
[2]; mouse, in vivo, ip
  toxic side effects compared with the conotoxin (forced swimming): lower toxic side effects
[3]; 1 h
  Duration of the immobility of mice in tail suspension tests: 20.39 ± 1.21^ s
[3]; 24 h
  Duration of the immobility of mice in tail suspension tests: 18.99 ± 1.48 s
[3]; Time 0
  Duration of the immobility of mice in tail suspension tests: 20.57 ± 1.65 s
[3]; mouse, in vivo, ip
  data of tail suspension test compared with the normal saline group: no significant difference
  toxic side effects compared with the conotoxin (tail suspension): lower toxic side effects
[4]; 0 min
  Pain threshold (tail flick): 2.31 ± 0.12 s
[4]; 15 min
  Pain threshold (tail flick): 2.12 ± 0.21^∧∧ s
[4]; 30 min
  Pain threshold (tail flick): 2.12 ± 0.12 s
[4]; 45 min
  Pain threshold (tail flick): 3.22 ± 0.12^∧ s
[4]; 60 min
  Pain threshold (tail flick): 2.12 ± 0.21*^∧ s
[4]; 75 min
  Pain threshold (tail flick): 2.12 ± 0.12 s
[4]; 90 min
  Pain threshold (tail flick): 2.32 ± 0.14 s
[4]; mouse, in vivo
  difference from the conotoxin group during a time period (^^P<0.01): significantly different from the conotoxin group
[5]
  analgesic effects in formalin-induced pain experiments: good analgesic effects
  cumulative foot licking time, Phase I: 46.44 ± 10.28*^
  cumulative foot licking time, Phase II: 42.10 ± 14.32*^
[6]; 14th day after inoculation
  increase of the latency of foot lifting: particularly significant
[6]; heat radiation stimulation, before administration
  Latency of foot lifting before administration: 10.56 ± 0.89
[6]; heat radiation stimulation, day 4
  Latency (D) of foot lifting after administration: 10.01 ± 0.23
[6]; heat radiation stimulation, day 7
  Latency (D) of foot lifting after administration: 9.26 ± 0.99
[6]; heat radiation stimulation, day 10
  Latency (D) of foot lifting after administration: 8.56 ± 0.23
[6]; heat radiation stimulation, day 14
  Latency (D) of foot lifting after administration: 7.44 ± 0.85
[7]; 50 μg/kg and 100 μg/kg, injected subcutaneously
  animal reaction thresholds: significantly increased
[7]; [10]
  time the pain thresholds lasted: 1 h
  highest pain threshold on the operative side: 2.3 ± 0.5 g
  pain threshold on the opposite side: 1.2 ± 0.2 g
[7]; [11]
  time the effect on the operative side lasted: about 8 h
  highest pain threshold on the operative side: 7.4 ± 0.9 g
  pain threshold on the opposite side: 3.2 ± 1.3 g
[7]; 300 μg/kg, subcutaneously
  pain threshold change: not significantly increased
[7]; Dose 50 (μg/kg), 0 h
  Pain threshold: 25.44 ± 0.23 s
[7]; Dose 50 (μg/kg), 1 h
  Pain threshold: 26.35 ± 0.65 s
[7]; Dose 50 (μg/kg), 2 h
  Pain threshold: 26.89 ± 0.23 s
[7]; Dose 50 (μg/kg), 3 h
  Pain threshold: 27.56 ± 0.56 s
[7]; Dose 50 (μg/kg), 4 h
  Pain threshold: 26.45 ± 0.78 s
[7]; Dose 50 (μg/kg), 5 h
  Pain threshold: 25.89 ± 0.12 s
[7]; Dose 100 (μg/kg), 0 h
  Pain threshold: 25.11 ± 0.56 s
[7]; Dose 100 (μg/kg), 1 h
  Pain threshold: 27.86 ± 0.95 s
[7]; Dose 100 (μg/kg), 2 h
  Pain threshold: 28.12 ± 0.65 s
[7]; Dose 100 (μg/kg), 3 h
  Pain threshold: 29.46 ± 0.61 s
[7]; Dose 100 (μg/kg), 4 h
  Pain threshold: 26.43 ± 0.62 s
[7]; Dose 100 (μg/kg), 5 h
  Pain threshold: 25.68 ± 0.33 s
[7]; Dose 300 (μg/kg), 0 h
  Pain threshold: 26.65 ± 0.41 s
[7]; Dose 300 (μg/kg), 1 h
  Pain threshold: 30.56 ± 0.11 s
[7]; Dose 300 (μg/kg), 2 h
  Pain threshold: 30.53 ± 0.62 s
[7]; Dose 300 (μg/kg), 3 h
  Pain threshold: 29.56 ± 0.12 s
[7]; Dose 300 (μg/kg), 4 h
  Pain threshold: 28.15 ± 0.32 s
[7]; Dose 300 (μg/kg), 5 h
  Pain threshold: 27.15 ± 0.65 s
[8]; 1 h
  Movement distances of mice in open field tests: 20.39 ± 1.21^
  Movement distances of mice in the center area in open field tests: 20.39 ± 1.21^
  Movement distances of mice in the peripheral area in open field tests: 20.39 ± 1.21^
  Number of entrances to the center area in open field tests: 20.39 ± 1.21^
  Number of entrances to the peripheral area in open field tests: 20.39 ± 1.21^
  Residence time in the center area in open field tests: 20.39 ± 1.21^ s
  Residence time in the peripheral area in open field tests: 20.39 ± 1.21^ s
[8]; 24 h
  Movement distances of mice in open field tests: 18.99 ± 1.48 m
  Movement distances of mice in the center area in open field tests: 18.99 ±1.48 m
  Movement distances of mice in the peripheral area in open field tests: 18.99 ± 1.48 m
  Number of entrances to the center area in open field tests: 18.99 ± 1.48
  Number of entrances to the peripheral area in open field tests: 18.99 ± 1.48
  Residence time in the center area in open field tests: 18.99 ± 1.48 s
  Residence time in the peripheral area in open field tests: 18.99 ± 1.48 s
[8]; Time 0
  Movement distances of mice in open field tests: 20.57 ± 1.65 m
  Movement distances of mice in the center area in open field tests: 20.57 ±1.65 m
  Movement distances of mice in the peripheral area in open field tests: 20.57 ± 1.65 m
  Number of entrances to the center area in open field tests: 20.57 ± 1.65
  Number of entrances to the peripheral area in open field tests: 20.57 ± 1.65
  Residence time in the center area in open field tests: 20.57 ± 1.65 s
  Residence time in the peripheral area in open field tests: 20.57 ± 1.65 s
[8]; mouse, in vivo, ip
  side effects compared with conotoxin (open field): lower side effects
  various indexes in open field experiments compared with the normal saline group: no significant difference
[9]; 0 min
  Pain threshold: 28.32 ± 0.21 s
[9]; mouse, in vivo, ip
  Pain threshold: 25.21 ± 0.42^∧∧ s and 31.32 ± 0.32*^∧ s and 24.23 ± 0.42^∧ s and 21.39 ± 0.45^∧ s and 29.23 ± 0.42 s and 23.44 ± 0.24 s
  heat thresholds of mice compared with the normal saline negative control group: effectively increase the heat thresholds of mice
